Data on seven molecules can be found in ChEMBL document CHEMBL1132338, “Molecular recognition in nicotinic acetylcholine receptors: the importance of pi-cation interactions” (J Med Chem, 1999).

For experiment [1], the target named is Neuronal acetylcholine receptor; alpha4/beta2 (Homo sapiens, UniProt P17787+P43681). Description: Binding affinity at heteropentameric Nicotinic acetylcholine receptor alpha4-beta2 subtype using […] as radioligand. In kind it is protein-complex assay.
Experiment [2] deals with Neuronal acetylcholine receptor subunit alpha-7 (Homo sapiens, UniProt P36544). Description: Binding affinity at homopentameric Nicotinic acetylcholine receptor alpha-7 subtype using [3H]-alpha-bungarotoxin as radioligand.
Neuronal acetylcholine receptor subunit alpha-7, sequence (P36544 whole entry): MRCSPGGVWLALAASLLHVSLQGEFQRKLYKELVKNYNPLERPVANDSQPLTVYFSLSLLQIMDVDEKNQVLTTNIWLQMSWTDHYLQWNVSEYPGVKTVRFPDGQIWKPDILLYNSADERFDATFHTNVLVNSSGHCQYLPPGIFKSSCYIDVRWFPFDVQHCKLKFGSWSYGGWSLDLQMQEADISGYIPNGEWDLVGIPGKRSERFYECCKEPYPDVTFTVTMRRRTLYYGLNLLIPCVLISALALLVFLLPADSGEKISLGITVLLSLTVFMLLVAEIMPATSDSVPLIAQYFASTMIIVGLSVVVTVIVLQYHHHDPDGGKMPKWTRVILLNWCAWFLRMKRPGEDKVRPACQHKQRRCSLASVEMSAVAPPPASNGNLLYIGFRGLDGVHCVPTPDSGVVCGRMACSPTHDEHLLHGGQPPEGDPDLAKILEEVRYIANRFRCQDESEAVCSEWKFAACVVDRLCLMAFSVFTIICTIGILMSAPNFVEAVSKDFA

Neuronal acetylcholine receptor; alpha4/beta2, sequence (P17787 whole entry): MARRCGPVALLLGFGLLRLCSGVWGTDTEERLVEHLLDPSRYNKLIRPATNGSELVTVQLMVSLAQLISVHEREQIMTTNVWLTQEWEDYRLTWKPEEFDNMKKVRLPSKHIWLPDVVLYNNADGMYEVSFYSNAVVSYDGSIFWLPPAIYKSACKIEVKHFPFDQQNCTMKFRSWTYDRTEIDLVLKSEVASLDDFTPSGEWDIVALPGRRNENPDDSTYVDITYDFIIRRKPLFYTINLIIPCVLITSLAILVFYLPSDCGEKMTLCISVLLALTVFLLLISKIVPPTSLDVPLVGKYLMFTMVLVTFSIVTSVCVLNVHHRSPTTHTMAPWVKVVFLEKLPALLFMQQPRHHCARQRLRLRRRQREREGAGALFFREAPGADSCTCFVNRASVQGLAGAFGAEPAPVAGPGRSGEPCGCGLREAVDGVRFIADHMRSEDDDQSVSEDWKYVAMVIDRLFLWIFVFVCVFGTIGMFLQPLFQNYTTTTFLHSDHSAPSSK
Neuronal acetylcholine receptor; alpha4/beta2, sequence (P43681 whole entry): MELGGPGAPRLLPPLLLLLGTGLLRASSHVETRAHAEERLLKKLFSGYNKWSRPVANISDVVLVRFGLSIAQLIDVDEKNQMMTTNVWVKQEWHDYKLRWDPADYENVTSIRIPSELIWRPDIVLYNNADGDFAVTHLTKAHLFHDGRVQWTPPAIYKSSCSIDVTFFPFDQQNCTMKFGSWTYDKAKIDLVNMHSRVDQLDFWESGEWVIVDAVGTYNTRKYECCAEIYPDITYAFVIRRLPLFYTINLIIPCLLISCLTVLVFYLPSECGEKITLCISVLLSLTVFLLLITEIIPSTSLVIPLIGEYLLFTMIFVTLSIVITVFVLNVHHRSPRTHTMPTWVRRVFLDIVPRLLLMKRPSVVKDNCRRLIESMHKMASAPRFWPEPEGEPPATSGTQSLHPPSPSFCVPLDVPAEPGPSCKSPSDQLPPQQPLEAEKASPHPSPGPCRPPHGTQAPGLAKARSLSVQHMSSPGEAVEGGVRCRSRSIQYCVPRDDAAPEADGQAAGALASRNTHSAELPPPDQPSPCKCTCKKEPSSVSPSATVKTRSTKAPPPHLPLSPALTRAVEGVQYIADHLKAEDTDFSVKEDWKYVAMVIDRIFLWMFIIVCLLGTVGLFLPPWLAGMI

For the molecule `c1cncc(C2CCN2)c1` (stereo not given), the affinity in experiment [1] corresponds to a Ki of 1.1 nM.
For the molecule `CN1CCCCC1c1cccnc1` (stereo not given), the Ki (in general, a measure of affinity in units of concentration, obtained from inhibition or displacement) was found to be 9700 nM in experiment [2] and 450 nM in experiment [1].
The molecule `c1cncc([C@@H]2CCCN2)c1` [NORNICOTINE] came in with a Ki in experiment [2] of 730 nM.
Regarding `c1cncc(C2CCCCN2)c1` (stereo not drawn) [DL-ANABASINE], the Ki came to 450 nM in experiment [2] and 92 nM in experiment [1].
`Clc1ccc(C2CC3CCC2N3)cn1` (stereo not given) [EPIBATIDINE]: the Ki in experiment [2] came out at 25 nM. In other words, the double-digit nanomolar range.
In the case of `C[N+](C)(C)C` [TETRAMETHYLAMMONIUM ION], the Ki in experiment [2] amounted to 2300 nM; in experiment [1], 24 nM.
In experiment [1], `CN1C2CCC1C(c1ccc(Cl)nc1)C2` (stereo not given) showed a Ki of 0.26 nM.
